Earlier results as cited in patent US20220090193A1, “ATTACHING NUCLEOTIDES TO A POLYNUCLEOTIDE WITH A POLYMERASE” (priority 2019, published 2022).

Settings: amino acid side chain

## NCCCC[C@H](N)C(=O)O [Lysine]
  pKa: 10.54
